Like-named read-outs stand apart in the source and are kept apart here.
How the values were obtained:
[1] = system: C57BL/6Ntac mice
Text: The novelty suppressed feeding paradigm (NSF) is a conflict test that elicits competing motivations: the drive to eat and the fear of venturing into the center of brightly lit arena. […] Briefly, the testing apparatus consisted of a plastic box (50×50×20 cm), the floor of which was covered with approximately 2 cm of wooden bedding. Twenty-four hours prior to behavioral testing, all food was removed from the home cage. At the time of testing, a single pellet of food (regular chow) was placed on a white paper platform positioned in the center of the box. An animal was placed in a corner of the box, and a stopwatch was immediately started. The latency to eat (defined as the mouse sitting on its haunches and biting the pellet with the use of forepaws) was timed. Immediately afterwards, the animal was transferred to its home cage, and the amount of food consumed by the mouse in the subsequent 5 min was measured, serving as a control for change in appetite as a possible confounding factor. Each mouse was weighed before food deprivation and before testing to assess the percentage of body weight loss (data not shown).
Mice were anesthetized with ketamine and xylazine (100 mg/ml ketamine; 20 mg/ml xylazine), placed in a stereotaxic frame and exposed to cranial irradiation using a Siemens Stabilopan X-ray system operated at 300 kVp and 20 mA. […] Dosimetry was done using a Capintec Model PR06G electrometer ionization chamber and Kodak Readypack Radiographic XV films. The corrected dose rate was approximately 1.8 Gy per min at a source to skin distance of 30 cm. The procedure lasted 2 min and 47 sec, delivering a total of 5 Gy. Three 5 Gy doses were delivered on days 1, 4 and 8.

[2] = system: Giα2; details: hypothalamus
Experimental: (§1) Tissue preparation: Animals were sacrificed by cervical dislocation. Selected brain regions were dissected and placed in tubes containing RNAlater (Ambion), incubated at 4 degrees C. overnight and stored at −80 degrees C. until processing.
(§2) Brain regions (10-20 mg) were homogenized for 20 sec at medium speed in 1.25 ml lysis/denaturation buffer (Ambion) using an Autogizer™ (Tomtec). Total RNA was isolated from 100-300 ul aliquots of the homogenate using the RNAqueous™ 96 automated kit (Ambion) according to the manufacturer's protocol. A second DNase I digestion was incorporated after elution of the RNA from the Ambion filter plate to remove residual genomic DNA. Digestion was performed for 1 hr at room temperature using DNase I™ (Invitrogen) and the buffer supplied with the enzyme. After inactivation of the DNase with EDTA and heat, the RNA was desalted with a Multiscreen™ filter plate (Millipore) and stored at −80° C. Conversion of total RNA into first strand cDNA was accomplished with Superscript II™ enzyme (Invitrogen) followed by desalting over a Multiscreen plate. Approximately 1 ug of total RNA was used for each cDNA reaction. The yield of cDNA was determined using Quant-iT Oligreen™ reagent (Invitrogen). Prior to the Oligreen assay, total RNA carried over from the cDNA reaction was hydrolyzed with NaOH and heat, followed by neutralization with Tris buffer. This treatment eliminates any contribution of the RNA to the Oligreen signal. The unknown cDNA samples were compared to a standard curve derived using a 18mer oligonucleotide. Replica cDNA plates containing 3 ng of cDNA per well were prepared using an Evolution P3™ workstation (PerkinElmer). Each animal in a given experiment was represented by one well on each plate and each plate always contained the control and treatment groups.
(§3) Quantitative PCR (qPCR) was carried out in 25 ul reactions using Full Velocity™ enzyme (Stratagene). Plates were run on either a Stratagene MX3000P™ or an Applied Biosystems 7900 HT instrument. The cycling parameters were set based on recommendations from the enzyme manufacturer. One gene expression profile was analyzed per PCR plate and duplicate plates were run for each gene. Two housekeeping genes, cyclophilin and GAPDH, were included in the gene list and were used to normalize the expression results obtained from the other genes of interest (see data analysis section). The sequences of the primers and probes for each gene are listed in supplemental table 1. Duplicate cycle thresholds (Ct values) were obtained for each gene/region and averaged. […] After converting delta Ct values to percentage, the mean and SEM of each animal group (controls and experimental) was calculated.

[3] = system: β-arrestin 1; details: hypothalamus
Experimental: as §1, §2, §3

[4] = system: β-arrestin 2
Experimental: as §1, §2, §3

[5] = system: β-arrestin 2 knock out mice; assay: Novelty Suppressed Feeding paradigm in β-arrestin 2 knock out mice and littermates; format: in vivo
Text: Twenty-four hours prior to behavioral testing, all food was removed from the home cage. At the time of testing, a single pellet of food (regular chow) was placed on a white paper platform positioned in the center of the box.

[6] = system: C57BL/6Ntac mice; assay: Home cage activity; format: in vivo; details: chronic antidepressant treatment (fluoxetine 18 mg/kg/day)
Experimental: Home cage activity Home cage activity was quantified using the ActiV-Meter (Bioseb, France) over a 24 hours period. During the experiment, food and water were provided ad libitum. Various parameters such as activity time (sec), ambulatory distance (cm) and inactivity duration (calculated from the difference between immobility and motionless activity duration while the animal is eating or scratching) were recorded. The open field paradigm, the novelty suppressed feeding, the forced swim test The procedure for each behavioral test, i.e. the open field paradigm, the novelty suppressed feeding, the forced swim test, is described in the materials and methods section.

[7] = target: T1, 5-HT1A autoreceptors (Mus musculus, UniProt Q64264)
T1 sequence (Q64264 1-421): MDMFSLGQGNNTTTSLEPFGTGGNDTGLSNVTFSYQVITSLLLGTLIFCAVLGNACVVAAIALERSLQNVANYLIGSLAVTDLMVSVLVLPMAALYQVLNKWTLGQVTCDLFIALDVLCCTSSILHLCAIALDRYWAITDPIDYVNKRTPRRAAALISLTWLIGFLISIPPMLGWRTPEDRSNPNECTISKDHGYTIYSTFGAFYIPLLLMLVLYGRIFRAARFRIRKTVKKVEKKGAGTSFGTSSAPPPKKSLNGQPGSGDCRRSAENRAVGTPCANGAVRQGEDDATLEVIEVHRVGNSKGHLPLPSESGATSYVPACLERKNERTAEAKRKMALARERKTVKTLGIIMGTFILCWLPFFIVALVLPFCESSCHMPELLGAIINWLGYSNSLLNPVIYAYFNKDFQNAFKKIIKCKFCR
Experimental: (A) 8-OH DPAT-induced hypothermia in 1A-High and 1A-Low mice. Following establishment of baseline body temperature, animals received IP injections of 0.1 mg/kg 8-OHDAPT, 0.5 mg/kg 8-OH DPAT, or saline (N=5/dose/group). Values are expressed as core temperature change from the last recorded baseline temperature.

[8] = system: C57BL/6Ntac mice; assay: Splash test (grooming); format: in vivo; details: corticosterone, without or with 3 weeks of fluoxetine 18 mg/kg/day; mean±SEM
Experimental: This test consisted in squirting 200 ul of a 10% sucrose solution on the mouse's snout. The grooming duration and grooming frequency were then recorded.

[9] = system: β-arrestin 2 knock out mice; assay: Forced Swim Test in β-arrestin 2 knock out mice and littermates; format: in vivo; details: relative to the control group
Experimental: The forced swim test procedure was modified relative to the traditional method, so as to enhance sensitivity for detecting the putative antidepressant activity of drugs (Porsolt et al., 1977). The modifications consist of an increase in water depth (Dulawa et al., 2004). Mice were placed into plastic buckets (19 cm diameter, 23 cm deep, filled with 23-25° C. water) and videotaped for 6 min to score immobility duration.

[10] = system: HPA axis; assay: Stress evoked increase of corticosterone levels; format: in vivo, mice; details: acute swim stress; baseline conditions and after chronic corticosterone treatment
Experimental: Adult male C57BL/6Ntac mice were exposed to a 6 minutes swim stress. […]. Blood was collected into ice-chilled tubes containing EDTA and centrifuged at 3000 rpm for 10 min (at 4° C.) for separation of plasma, and plasma samples were stored at −80° C. until assayed. […]; Diagnostic Systems Laboratories, Inc. Webster, Tex.; sensitivity limit: 20 ng/ml). ACTH was measured directly in plasma using an ImmuChem™ Double Antibody hACTH 1251 RIA kit (No. 07-106101; MP Biomedicals, LLC, Orangeburg, N.Y.) with a sensitivity limit ˜5.7 pg/ml. All samples were measured simultaneously to reduce inter-assay variability.

In the case of `CNCCC(Oc1ccc(C(F)(F)F)cc1)c1ccccc1` (stereo not drawn) [fluoxetine], the “effects of fluoxetine to reverse the anxiety/depressive-like state in the NSF paradigm” value ([1]; after hippocampal irradiation, chronic corticosterone) is reported as “completely abolished”, the “corticosterone-induced change in the latency to feed (NSF)” value ([1]; chronic fluoxetine 18 or imipramine 40 mg/kg/day in corticosterone-treated mice) is reported as “reversed” and the “latency to feed (NSF)” value ([1]; irradiated corticosterone/fluoxetine group) is reported as 546.2 s. The “latency to feed (NSF)” value ([1]; sham corticosterone/fluoxetine group) was 371.3 s, the Giα2 expression [2] was “totally reversed” and the “β-arrestin 1 expression” value [3] was “totally reversed”. The “β-arrestin 2 levels” value ([4]; hippocampus, fluoxetine) was “opposite effect”, the “β-arrestin 2 expression” value ([4]; hypothalamus, fluoxetine in corticosterone-treated mice) was “reversed” and the “latency to feed (NSF)” value ([5]; mutant (β-arrestin 2 knock out) mice) was “had no effect”. For the same molecule, the “latency to feed (NSF)” value ([5]; wild-type mice) was “significantly decreased”, the “corticosterone-induced decreased home cage activity and flattened circadian rhythm” value [6] was “is not reversed” and the “hypothermic response to 8-OH DPAT after chronic fluoxetine” value ([7]; 1A-High mice treated with fluoxetine for 30 days) was “no hypothermic response”. The “hypothermic response to 8-OH DPAT after chronic fluoxetine” value ([7]; 1A-Low mice treated with fluoxetine for 30 days) was “blunted hypothermic response”, the “grooming duration (splash test)” value [8] was 99.8 s and the “grooming frequency (splash test)” value [8] was 9±1. For the same molecule, the “immobility (FST)” value ([9]; wild-type mice) was “decrease in immobility”, the “immobility (FST)” value ([9]; β-arrestin 2 knockout mice) was “decrease in immobility” and the “stress induced corticosterone levels” value [10] was “had no effect”.

Source: patent US20110296540A1, “ASSAY FOR SCREENING ANTIDEPRESSANTS” (priority 2008, published 2011)
